According to PMC9791335 (Heliyon, 2022):

Target: lysine-specific demethylase 1 (LSD1) (Homo sapiens, UniProt O60341)
Assay: HRP-coupled fluorescence
Type: biochemical

With COc1cc(CNC(=O)CCCCCCC(C)C)ccc1O [DHC, dihydrocapsaicin] the “% inhibition at 10 μM” value was 76.5.
